Laboratory results taken from patent US20110195929A1, “COMPOUNDS FOR THE TREATMENT OF FLAVIVIRAL INFECTIONS” (SUMMIT CORPORATION PLC, priority 2008, published 2011).

How the values were obtained:
Naringinase = test: Glycosidase inhibition: Naringinase; assay type: biochemical, Penecillium decumbens; details: 1 mg/ml; pH 4.0, 20° C
Protocol: (§1) Inhibition of the N-linked glycan trimming enzymes alpha-Glucosidases I and II or alpha-Mannosidases I and II are thought to be related to the anti-viral activity of castanospermine (Compound 104) and 1-deoxynojirimycin (Compound 193). […] All enzymes were purchased from Sigma, as were the appropriate p-nitrophenyl substrates. Assays were carried out in microtitre plates. Enzymes were assayed in 0.1M citric acid/0.2M di-sodium hydrogen phosphate (McIlvaine) buffers at the optimum pH for the enzyme. All assays were carried out at 20° C. For screening assays the incubation assay consisted of 10 μl of enzyme solution, 10 μl of inhibitor solution (made up in water at 5 mM) and 50 μl of the appropriate 5 mM p-nitrophenyl substrate (3.57 mM final conc.) made up in McIlvaine buffer at the optimum pH for the enzyme.
(§2) The reactions were stopped with 0.4M glycine (pH 10.4) during the exponential phase of the reaction, which was determined at the beginning of the assay using blanks with water, which were incubated for a range of time periods to measure the reaction rate using 5 mM substrate solution. Endpoint absorbances were read at 405 nm with a Bio-rad microtitre plate reader (Benchmark). Water was substituted for the inhibitors in the blanks.

α-D-mannosidase = target: T1, α-D-mannosidase (Canavalia ensiformis, UniProt C0HJB3); test: Glycosidase inhibition: α-D-mannosidase; assay type: biochemical, Jack beans (Canavalia ensiformis); details: 1 mg/ml; pH 4.5, 20° C
T1 construct: purchased Sigma
T1 sequence (C0HJB3 1-981): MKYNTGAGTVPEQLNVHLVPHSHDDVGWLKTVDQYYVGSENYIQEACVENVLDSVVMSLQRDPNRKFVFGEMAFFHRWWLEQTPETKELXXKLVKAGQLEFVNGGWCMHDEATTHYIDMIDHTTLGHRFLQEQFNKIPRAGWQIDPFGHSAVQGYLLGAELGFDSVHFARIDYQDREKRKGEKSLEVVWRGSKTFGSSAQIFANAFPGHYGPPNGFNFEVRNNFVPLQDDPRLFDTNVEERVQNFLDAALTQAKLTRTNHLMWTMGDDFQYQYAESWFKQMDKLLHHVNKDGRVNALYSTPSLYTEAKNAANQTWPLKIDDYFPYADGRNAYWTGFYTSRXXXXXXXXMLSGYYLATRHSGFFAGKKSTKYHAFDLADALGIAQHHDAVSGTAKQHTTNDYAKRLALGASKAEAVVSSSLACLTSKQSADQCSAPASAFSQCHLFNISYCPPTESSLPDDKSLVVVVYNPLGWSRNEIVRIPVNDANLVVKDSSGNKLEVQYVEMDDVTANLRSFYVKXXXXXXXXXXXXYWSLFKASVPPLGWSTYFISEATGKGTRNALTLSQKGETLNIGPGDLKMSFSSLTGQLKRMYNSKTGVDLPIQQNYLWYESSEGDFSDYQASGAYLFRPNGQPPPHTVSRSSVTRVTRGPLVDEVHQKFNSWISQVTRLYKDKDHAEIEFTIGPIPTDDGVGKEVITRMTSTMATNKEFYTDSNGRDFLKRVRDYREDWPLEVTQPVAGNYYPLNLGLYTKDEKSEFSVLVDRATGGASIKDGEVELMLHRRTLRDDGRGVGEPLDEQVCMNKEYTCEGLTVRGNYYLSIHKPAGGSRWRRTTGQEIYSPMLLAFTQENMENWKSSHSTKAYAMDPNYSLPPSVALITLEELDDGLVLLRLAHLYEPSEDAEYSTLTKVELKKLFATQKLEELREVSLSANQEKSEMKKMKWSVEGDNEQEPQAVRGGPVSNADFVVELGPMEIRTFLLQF
Protocol: as §1, §2

β-D-galactosidase = test: Glycosidase inhibition: β-D-galactosidase; assay type: biochemical, Bovine liver; details: 1 mg/ml; pH 7.3, 20° C
Protocol: as §1, §2

α-L-fucosidase = target: T2, α-L-fucosidase (Bos taurus, UniProt Q2KIM0); test: Glycosidase inhibition: α-L-fucosidase; assay type: biochemical, Bovine kidney; details: 1 mg/ml; pH 5.5, 20° C
T2 construct: purchased Sigma; host or cells: bovine kidney
T2 sequence (Q2KIM0 23-468): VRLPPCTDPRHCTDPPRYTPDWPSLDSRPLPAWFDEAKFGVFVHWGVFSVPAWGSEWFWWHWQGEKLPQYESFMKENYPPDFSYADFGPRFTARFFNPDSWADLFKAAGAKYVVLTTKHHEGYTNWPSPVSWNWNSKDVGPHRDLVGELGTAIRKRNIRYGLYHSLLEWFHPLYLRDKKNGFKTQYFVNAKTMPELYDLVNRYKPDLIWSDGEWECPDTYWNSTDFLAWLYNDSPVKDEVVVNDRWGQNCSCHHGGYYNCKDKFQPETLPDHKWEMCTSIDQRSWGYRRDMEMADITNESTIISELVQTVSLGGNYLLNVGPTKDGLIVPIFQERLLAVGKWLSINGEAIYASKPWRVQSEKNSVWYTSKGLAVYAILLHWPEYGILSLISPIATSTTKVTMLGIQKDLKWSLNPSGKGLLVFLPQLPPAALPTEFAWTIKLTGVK
Protocol: All enzymes were purchased from Sigma, as were the appropriate p-nitrophenyl substrates. Assays were carried out in microtitre plates. Enzymes were assayed in 0.1M citric acid/0.2M di-sodium hydrogen phosphate (McIlvaine) buffers at the optimum pH for the enzyme. All assays were carried out at 20° C. For screening assays the incubation assay consisted of 10 μl of enzyme solution, 10 μl of inhibitor solution (made up in water at 5 mM) and 50 μl of the appropriate 5 mM p-nitrophenyl substrate (3.57 mM final conc.) made up in McIlvaine buffer at the optimum pH for the enzyme.
as §2

| Structure (SMILES) | % inhibition Naringinase (Naringinase) [%] | inhibition at 1000 µg/mL (α-D-mannosidase) [%] | % inhibition β-galactosidase (β-D-galactosidase) [%] | inhibition at 1000 µg/mL (α-L-fucosidase) [%] |
| --- | --- | --- | --- | --- |
| CC[C@@H]1N[C@@H](CO)[C@H](O)[C@@H](O)[C@@H]1O [Compound 23, (2S,3R,4S,5S,6S)-2-ethyl-6-(hydroxymethyl)piperidine-3,4,5-triol] | 0 | 0 | 53 | 0 |
| CC[C@@H](O)[C@H]1N[C@H](CO)[C@@H](O)[C@@H]1O [Compound 62, (2R,3R,4R,5R)-2-(hydroxymethyl)-5-((R)-1-hydroxypropyl)pyrrolidine-3,4-diol] | 37 | 0 | 100 | 0 |
| CC(O)[C@H](O)[C@H]1N[C@H](CO)[C@@H](O)[C@@H]1O (stereo partly drawn) [Compound 63, (2R,3R,4R,5R)-2-((1R)-1,2-dihydroxypropyl)-5-(hydroxymethyl)pyrrolidine-3,4-diol] | 0 | 0 | 93 | 0 |
| O[C@H]1[C@H](O)[C@@H](O)CN2CC[C@H](O)[C@H]12 [Compound 104, Castanospermine, reference compound] | 39 | 0 | 16 | 0 |
| OC[C@@H]1NC[C@H](O)[C@@H]1O [Compound 167, (2S,3R,4S)-2-(hydroxymethyl)pyrrolidine-3,4-diol] | 50 | 0 | 0 | 28 |
